Where a SMILES comes first, the peptide text is derived from it. Where no end group is shown, it is not given here. The star is where a group is joined. AMC = Cc1cc(=O)oc2cc(N*)ccc12; βNA = c1ccc2cc(N*)ccc2c1
How the values were obtained:
[1] = molecular target: E433A variant of PgDPP III (Porphyromonas gingivalis, UniProt Q7MX92, E433A); experiment: biochemical; format: binding
[2] = test system: Full length PgDPP III (1–886 aa); format: biochemical, Porphyromonas gingivalis; conditions: for kcat/Km: full length, pH 8.0, 100 μM CoCl2, enzyme 0.5–1 nM; for kcat/Km of PgDPP III, fold lower than human DPP III: human DPP III data ref 70
[3] = test system: DPP III fragment (1–679 aa); experiment: Kinetic analysis / specific activity of the DPP III fragment; format: biochemical, Porphyromonas gingivalis; conditions: for kcat/Km: DPP III fragment, pH 8.0, 100 μM CoCl2, enzyme 40–100 nM; for kcat/Km / Km / kcat: 26°C; for Km / kcat: fluorimetric, pH 8.0 Tris-HCl (ionic strength 0.01M), 100 μM CoCl2, enzyme 40–100 nM, mean of at least two independent experiments ± SD
[4] = test system: gingipain null-mutant KDP136 cells; conditions: compared to wild-type P. gingivalis ATCC 33277; cited from earlier work
From the text: (§1) Dipeptidyl peptidases of P. gingivalis have been the subject of extensive research because these exopeptidases liberate dipeptides from the amino-end of their natural substrates, and P. gingivalis is known to utilize dipeptides preferentially, instead of free amino acids, as the source of energy. Until now, beside DPP IV, which is a proven virulence factor, three other DPPs were reported: DPP5, DPP7 and DPP11 [67–69]. They are all serine peptidases, localized in the periplasm, but differ in their substrate specificity.

[5] = test system: putative DPP III from P. gingivalis strain ATCC 33277; conditions: recombinant protein of gene PGN_1645; cited from earlier work
From the text: as §1

PgDPP III = experiment: Substrate specificity for PgDPP III, dipeptidyl-2NA substrates; format: biochemical, Porphyromonas gingivalis; conditions: for Relative hydrolysis rate: standard colorimetric assay, 37°C, pH 8.0, 50 mM Tris-HCl (I = 0.01), 100 μM CoCl2, Arg-Arg-2NA listed as 100; for substrate preference / hydrolysis rate (in words): dipeptidyl-2NA substrates
Procedure: DPP III activity was determined by a standard colorimetric assay described previously using Arg-Arg-2-naphthylamide (Arg2-2NA) and Arg-Arg-7-amido-4-methylcoumarin (Arg2-AMC) as substrates, at 37°C and pH 8.0, in 50 mM Tris-HCl buffer (I = 0.01) containing 100 μM CoCl2. […] The kinetic parameters were determined from the initial reaction rates, using a nonlinear regression program (GraphPad Prism version 5.04; GraphPad, La Jolla, CA, USA).
Cloning, expression, and purification of the recombinant proteins was performed as described in the Materials and methods section. Enzyme activity was assayed using a set of synthetic dipeptide-2-naphthylamide substrates as described previously. Full-length PgDPP III and the DPP III fragment (a. acids 1–679) were purified to apparent homogeneity according to SDS-PAGE, with estimated molecular weights of 102000 and 78000, respectively, which was in agreement with their predicted molecular masses (Fig 1A). We cloned and attempted to express three C-terminal fragments of different sizes. Only one (amino acids 648–886) was detected on SDS-PAGE. However, it could not be purified as all expressed protein was in insoluble inclusion bodies. This problem was not solved by attempts to yield soluble protein by refolding from inclusion bodies.

[6] = fluorimetric, 26°C, pH 8.0 Tris-HCl (ionic strength 0.01M), 100 μM CoCl2, enzyme 0.5–1 nM, mean of at least two independent experiments ± SD
[7] = DPP III fragment vs full length PgDPP III
[8] = Arg2-2NA, yeast enzyme data ref 70

Chain of E433A variant of PgDPP III (Q7MX92 whole entry E433A, the tested form may be a part): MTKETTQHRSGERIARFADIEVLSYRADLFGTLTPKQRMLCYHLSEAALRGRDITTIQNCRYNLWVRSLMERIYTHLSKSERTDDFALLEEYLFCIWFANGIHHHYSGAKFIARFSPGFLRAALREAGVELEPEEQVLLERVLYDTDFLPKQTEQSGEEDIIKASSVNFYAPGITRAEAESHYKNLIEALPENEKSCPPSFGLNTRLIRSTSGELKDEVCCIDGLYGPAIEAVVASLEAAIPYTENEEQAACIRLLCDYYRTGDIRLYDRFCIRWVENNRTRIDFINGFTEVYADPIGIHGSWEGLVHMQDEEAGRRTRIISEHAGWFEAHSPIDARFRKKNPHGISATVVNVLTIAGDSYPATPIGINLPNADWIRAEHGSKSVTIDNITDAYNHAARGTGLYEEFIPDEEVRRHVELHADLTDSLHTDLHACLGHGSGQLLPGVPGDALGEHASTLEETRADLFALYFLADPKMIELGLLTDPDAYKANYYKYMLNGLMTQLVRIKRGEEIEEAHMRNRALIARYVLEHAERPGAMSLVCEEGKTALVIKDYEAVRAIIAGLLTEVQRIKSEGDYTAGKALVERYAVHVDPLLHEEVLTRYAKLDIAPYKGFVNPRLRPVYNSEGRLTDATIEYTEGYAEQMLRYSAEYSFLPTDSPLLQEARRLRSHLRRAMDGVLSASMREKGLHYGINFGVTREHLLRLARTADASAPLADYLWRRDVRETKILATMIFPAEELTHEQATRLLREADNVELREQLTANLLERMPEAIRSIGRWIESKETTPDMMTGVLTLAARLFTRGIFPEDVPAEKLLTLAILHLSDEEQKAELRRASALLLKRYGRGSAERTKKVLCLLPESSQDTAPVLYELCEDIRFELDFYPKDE

Row | Compound | Kd [1] [µM] | kcat [2, 6] [s⁻¹] | kcat/Km ([2]; 26°C) [M⁻¹ s⁻¹] | kcat/Km of PgDPP III, fold lower than human DPP III [2] [fold] | Km increase when C-terminal domain was removed [3, 7] [fold] | reduction in catalytic efficiency when C-terminal domain was removed [3, 7] [fold] | kcat/Km [3] [M⁻¹ s⁻¹] | Km [3] [µM] | kcat [3] [s⁻¹] | Relative hydrolysis rate (PgDPP III) [%] | other results
1 | CC[C@H](C)[C@H](NC(=O)[C@H](Cc1ccc(O)cc1)NC(=O)[C@@H](NC(=O)[C@H](CCCNC(=N)N)NC(=O)[C@@H](N)CC(=O)O)C(C)C)C(=O)N[C@@H](Cc1cnc[nH]1)C(=O)N1CCC[C@H]1C(=O)N[C@@H](Cc1ccccc1)C(=O)O [angiotensin II] | 0.9 ± 0.12 |  |  |  |  |  |  |  |  |  | 
2 | Cc1cc(=O)oc2cc(NC(=O)[C@H](CCCNC(=N)N)NC(=O)[C@@H](N)CCCNC(=N)N)ccc12 [Arg-Arg-AMC, Arg-Arg-7-amido-4-methylcoumarin] (H-Arg-Arg-{AMC}) |  | 0.29 ± 0.11 | 113280 | 26 | 4 | 470 | 241 | 9.97 ± 0.44 | 0.0024 ± 0.0014 |  | kcat reduction when C-terminal domain was removed [3, 7]: 120 fold; hydrolysis by mutant cells (in words) [4]: defects in Arg-Arg-AMC hydrolysis; activity among dipeptidyl-AMC substrates (in words) [5]: highest activity
3 | CC[C@H](C)[C@H](N)C(=O)N[C@H](C(=O)N[C@@H](Cc1ccc(O)cc1)C(=O)N1CCC[C@H]1C(=O)N[C@@H](Cc1c[nH]c2ccccc12)C(=O)O)C(C)C [IVYPW] | 9.35 ± 0.73 |  |  |  |  |  |  |  |  |  | 
4 | NC(N)=NCCCC(NC(=O)c1ccccc1)C(=O)Nc1ccc2ccccc2c1 (stereo not shown) [BANA] |  |  |  |  |  |  |  |  |  | 0 | 
5 | VVYPW [tynorphin] | 7.3 ± 0.83 |  |  |  |  |  |  |  |  |  | 
6 | N=C(N)NCCC[C@H](NC(=O)[C@@H](N)CCCNC(=N)N)C(=O)Nc1ccc2ccccc2c1 [Arg-Arg-2NA, Arg-Arg-2-naphthylamide] (H-Arg-Arg-βNA) |  | 0.75 ± 0.13 | 773200 | 12 | 4 | 1050 | 732 | 4.37 ± 0.42 | 0.0032 ± 0.0005 | 100 | Km decrease, PgDPP III vs yeast counterpart [2, 8]: 12 fold; kcat increase, PgDPP III vs yeast counterpart [2, 8]: 4.2 fold; kcat/Km of full-length PgDPP III, fold higher than yeast counterpart [2, 8]: 50 fold; Km and kcat compared to B. thetaiotaomicron DPP III (in words) ([2]; BtDPP III data ref 24): similarities in Km and kcat values; Km [2, 6]: 0.97 ± 0.16 µM; catalytic efficiency, Arg-Arg-2NA fold higher than Arg-Arg-AMC ([2]; full length PgDPP III): 6.8 fold; kcat, Arg-Arg-2NA fold higher than Arg-Arg-AMC ([2]; full length PgDPP III): 2.6 fold; specific activity of DPP III fragment, fold lower than full-length protein ([3]; hydrolysis of Arg2-2NA, vs full-length PgDPP III): 250 fold; substrate preference / hydrolysis rate (in words) (PgDPP III; listed as Arg2-2NA): preference for Arg2-2NA; substrate preference / hydrolysis rate (in words) (PgDPP III; listed as diarginyl-2NA): PgDPP III prefers diarginyl-2NA
